The text below walks through data of patent publication US7858820B2, “Solid compositions suitable for oral administration containing non-hygroscopic salts of L-carnitine and the alkanoyl L-carnitines with taurine chloride and glycine chloride” (Sigma-Tau Industrie Farmaceutiche Riunite S.p.A., priority 2001, dated 2010).

The nature of data set [1]: Hygroscopicity of the solid salts. Conditions: for hygroscopicity of the starting material: remark in brackets on the reagent used. The format is physicochemical.
For data set [2] the following is noted: milieu with a high relative humidity content; U.S. Pat. No. 4,602,039; cited from earlier work.

Where a name gives a salt, the structure may show the parent alone.

On to `CCC(=O)O[C@H](CC(=O)O)C[N+](C)(C)C` [Example 2, Propionyl L-Carnitine Salt with Taurine Chloride], for which the “hygroscopicity of the isolated solid” value in data set [1] (white crystalline solid as obtained) is on record as “non-hygroscopic”.
As for `C[N+](C)(C)C[C@H](O)CC(=O)[O-].O=C(O)/C=C/C(=O)O` [L-carnitine fumarate], the “hygroscopicity of a prior-art salt” value in data set [2] was “highly non-hygroscopic”.
Regarding `CC(=O)O[C@H](CC(=O)[O-])C[N+](C)(C)C` [acetyl L-carnitine inner salt], the “hygroscopicity of the starting material” value in data set [1] is on record as “hygroscopic”.
On to `NCC(=O)O` [glycine hydrochloride], for which the “hygroscopicity of the starting material” value in data set [1] was “hygroscopic”.
As for `CCC(=O)O[C@H](CC(=O)[O-])C[N+](C)(C)C` [propionyl L-carnitine inner salt], in data set [1], the “hygroscopicity of the starting material” value was “hygroscopic”.
